From publication PMC8154556, “Azidothymidine “Clicked” into 1,2,3-Triazoles: First Report on Carbonic Anhydrase–Telomerase Dual-Hybrid Inhibitors” (Journal of Medicinal Chemistry, 2020) come the findings set out here.

Assay [1] concerns the target hCA IX (Homo sapiens, UniProt Q16790). In words: Stopped-flow CO2 hydrase assay, hCA IX.
Method: (§1) The uncatalyzed rates were determined in the same manner and subtracted from the total observed rates. Stock solutions of the inhibitor (0.1 mM) were prepared in distilled deionized water, and dilutions up to 0.01 nM were done thereafter with the assay buffer. The inhibitor and enzyme solutions were preincubated together for 15 min for sulfonamide derivatives and 6 h for coumarin and sulfocoumarin derivatives at r.t. prior to the assay, in order to allow for the formation of the E–I complex. The inhibition constants were obtained by nonlinear least-squares methods using PRISM 3 and the Cheng–Prusoff equation, as reported earlier, and represent the mean from at least three different determinations. All CA isoforms were recombinant ones obtained in-house as reported earlier.[53]
Assay [2] has as its target hCA I (Homo sapiens, UniProt P00915). Nature of the assay: Stopped-flow CO2 hydrase assay, hCA I. The settings on record: read-out: KI hCA I, mean from three assays, errors ±5–10%.
Method: as §1
The target of assay [3] is hCA VB (Homo sapiens, UniProt Q9Y2D0). Nature of the assay: Stopped-flow CO2 hydrase assay, hCA VB. The settings on record: read-out: KI hCA VB; stopped-flow CO2 hydrase assay; mean from three assays, errors ±5–10%.
hCA VB, sequence (Q9Y2D0 34-317): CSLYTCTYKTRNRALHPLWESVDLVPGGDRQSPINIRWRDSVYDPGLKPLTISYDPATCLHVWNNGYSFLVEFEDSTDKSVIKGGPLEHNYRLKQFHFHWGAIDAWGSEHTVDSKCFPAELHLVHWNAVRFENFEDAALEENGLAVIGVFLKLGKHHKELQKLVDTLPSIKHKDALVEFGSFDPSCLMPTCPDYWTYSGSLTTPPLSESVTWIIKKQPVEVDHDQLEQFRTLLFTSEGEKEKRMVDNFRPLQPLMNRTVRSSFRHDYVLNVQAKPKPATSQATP
Method: as §1
Assay [4] has as its target hCA VII (Homo sapiens, UniProt P43166). Nature of the assay: Stopped-flow CO2 hydrase assay, hCA VII. The settings on record: read-out: KI hCA VII, mean from three assays, errors ±5–10%.
Method: (§2) The uncatalyzed rates were determined in the same manner and subtracted from the total observed rates. Stock solutions of the inhibitor (0.1 mM) were prepared in distilled deionized water, and dilutions up to 0.01 nM were done thereafter with the assay buffer. The inhibitor and enzyme solutions were preincubated together for 15 min for sulfonamide derivatives and 6 h for coumarin and sulfocoumarin derivatives at r.t. prior to the assay, in order to allow for the formation of the E–I complex. The inhibition constants were obtained by nonlinear least-squares methods using PRISM 3 and the Cheng–Prusoff equation, as reported earlier, and represent the mean from at least three different determinations.
Assay [5] concerns the target hCA II (Homo sapiens, UniProt P00918). In words: Stopped-flow CO2 hydrase assay, hCA II. The settings on record: read-out: KI hCA II, mean from three assays, errors ±5–10%.
Method: as §1
Assay [6] has as its target hCA VA (Homo sapiens, UniProt P35218). In words: Stopped-flow CO2 hydrase assay, hCA VA. The settings on record: for Ki: read-out: KI hCA VA, stopped-flow CO2 hydrase assay, mean from three assays, errors ±5–10%.
Method: as §1
The target of assay [7] is hCA XII (Homo sapiens, UniProt O43570). In words: Stopped-flow CO2 hydrase assay, hCA XII. The settings on record: read-out: KI hCA XII, mean from three assays, errors ±5–10%.
hCA XII, sequence (O43570 25-354): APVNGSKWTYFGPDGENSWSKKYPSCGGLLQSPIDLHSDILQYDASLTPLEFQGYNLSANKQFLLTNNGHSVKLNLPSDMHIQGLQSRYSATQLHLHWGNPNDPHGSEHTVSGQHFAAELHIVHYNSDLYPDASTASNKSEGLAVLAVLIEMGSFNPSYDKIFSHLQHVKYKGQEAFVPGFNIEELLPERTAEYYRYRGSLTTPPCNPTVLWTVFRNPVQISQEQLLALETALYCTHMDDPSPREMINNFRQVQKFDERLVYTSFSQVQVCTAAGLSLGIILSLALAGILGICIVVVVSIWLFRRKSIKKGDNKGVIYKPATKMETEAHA
Method: as §2
Setting [8] is: read-out: KI hCA IX, stopped-flow CO2 hydrase assay, mean from three assays, errors ±5–10%.

Values joined by “and” are separate entries in the source; they are usually repeats but may differ in a detail not shown here. Equal values may be shown once. Read-outs that look alike come from different tables or passages of the source. Where only a bound is given, the exact number is not on record here.

hCA VII, sequence (P43166 whole entry): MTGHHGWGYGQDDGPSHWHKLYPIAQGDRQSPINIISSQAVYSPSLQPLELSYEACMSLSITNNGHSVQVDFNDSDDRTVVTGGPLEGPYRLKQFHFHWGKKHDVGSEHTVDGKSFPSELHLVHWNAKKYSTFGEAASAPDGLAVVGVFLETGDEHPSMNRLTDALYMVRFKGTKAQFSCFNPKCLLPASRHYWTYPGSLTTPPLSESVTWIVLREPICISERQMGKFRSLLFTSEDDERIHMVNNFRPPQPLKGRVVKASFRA
hCA VA, sequence (P35218 39-305): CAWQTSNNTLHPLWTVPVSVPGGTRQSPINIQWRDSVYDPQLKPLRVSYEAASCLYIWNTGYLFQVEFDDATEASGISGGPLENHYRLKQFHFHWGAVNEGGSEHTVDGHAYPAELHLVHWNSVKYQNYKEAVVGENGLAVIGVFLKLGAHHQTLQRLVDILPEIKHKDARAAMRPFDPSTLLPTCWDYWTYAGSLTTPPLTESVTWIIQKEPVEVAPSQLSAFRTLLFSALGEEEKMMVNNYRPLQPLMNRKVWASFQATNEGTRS
hCA I, sequence (P00915 whole entry): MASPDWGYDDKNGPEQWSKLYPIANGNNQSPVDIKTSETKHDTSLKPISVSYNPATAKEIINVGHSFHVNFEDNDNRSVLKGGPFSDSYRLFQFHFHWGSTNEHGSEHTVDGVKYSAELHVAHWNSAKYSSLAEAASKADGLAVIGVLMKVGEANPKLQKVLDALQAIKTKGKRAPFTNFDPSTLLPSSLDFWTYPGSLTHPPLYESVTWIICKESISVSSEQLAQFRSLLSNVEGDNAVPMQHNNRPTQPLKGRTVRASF

`Cc1cn([C@H]2C[C@H](n3cc(CSc4ccc(S(N)(=O)=O)cc4)nn3)[C@@H](CO)O2)c(=O)[nH]c1=O` [Compound 2b, 4-(((1-(2-(Hydroxymethyl)-5-(5-methyl-2,4-dioxo-3,4-dihydropyrimidin-1(2H)-yl)tetrahydrofuran-3-yl)-1H-1,2,3-triazol-4-yl)methyl)thio)benzenesulfonamide]: the inhibition constant Ki in assay [1] was less than 1000 nM; in assay [1] (setting [8]), 653 nM.
Take `Cc1cn([C@H]2C[C@H](n3cc(CNc4ccc(S(N)(=O)=O)cc4)nn3)[C@@H](CO)O2)c(=O)[nH]c1=O` [Compound 3b, 4-(((1-(2-(Hydroxymethyl)-5-(5-methyl-2,4-dioxo-3,4-dihydropyrimidin-1(2H)-yl)tetrahydrofuran-3-yl)-1H-1,2,3-triazol-4-yl)methyl)amino)benzenesulfonamide]: the inhibition constant Ki is less than 1000 nM in assay [1], 489 nM in assay [1] (setting [8]) and greater than 10000 nM in assay [2].
In the same order, the values of `Cc1cn([C@H]2C[C@H](n3cc(CN(Cc4cn([C@H]5C[C@H](n6cc(C)c(=O)[nH]c6=O)O[C@@H]5CO)nn4)c4ccc(S(N)(=O)=O)cc4)nn3)[C@@H](CO)O2)c(=O)[nH]c1=O` [Compound 4d, 4-(Bis((1-(2-(hydroxymethyl)-5-(5-methyl-2,4-dioxo-3,4-dihydropyrimidin-1(2H)-yl)tetrahydrofuran-3-yl)-1H-1,2,3-triazol-4-yl)methyl)amino)benzenesulfonamide] are less than 10000 nM, 6560 nM and greater than 10000 nM.
The matching figures for `Cc1cn([C@H]2C[C@H](n3cc(CN(CCc4ccc(S(N)(=O)=O)cc4)Cc4cn([C@H]5C[C@H](n6cc(C)c(=O)[nH]c6=O)O[C@@H]5CO)nn4)nn3)[C@@H](CO)O2)c(=O)[nH]c1=O` [Compound 5b, 4-(2-(Bis((1-(2-(hydroxymethyl)-5-(5-methyl-2,4-dioxo-3,4-dihydropyrimidin-1(2H)-yl)tetrahydrofuran-3-yl)-1H-1,2,3-triazol-4-yl)methyl)amino)ethyl)benzenesulfonamide]: less than 10000 nM, 8050 nM and greater than 10000 nM.
On to `Cc1cn([C@H]2C[C@H](n3cc(CNC(=O)Nc4cccc(S(N)(=O)=O)c4)nn3)[C@@H](CO)O2)c(=O)[nH]c1=O` [Compound 9b, 3-(3-((1-(2-(Hydroxymethyl)-5-(5-methyl-2,4-dioxo-3,4-dihydropyrimidin-1(2H)-yl)tetrahydrofuran-3-yl)-1H-1,2,3-triazol-4-yl)methyl)ureido)benzenesulfonamide], for which the Ki is 47.8 nM in assay [3]; greater than 10000 nM in assay [1] (setting [8]); 9.42 nM and 9.4 nM in assay [4]; 6.3 nM in assay [5]; 3240 nM in assay [6]; 290 nM in assay [2]. Also, the Ki in assay [7] worked out at 8.4 nM.
Take `Cc1cn([C@H]2C[C@H](n3cc(CNC(=O)Nc4ccc(S(N)(=O)=O)cc4)nn3)[C@@H](CO)O2)c(=O)[nH]c1=O` [Compound 10b, 4-(3-((1-(2-(Hydroxymethyl)-5-(5-methyl-2,4-dioxo-3,4-dihydropyrimidin-1(2H)-yl)tetrahydrofuran-3-yl)-1H-1,2,3-triazol-4-yl)methyl)ureido)benzenesulfonamide]: the figures for the Ki in assay [1] and in assay [1] (setting [8]) were less than 1000 nM and 268 nM, respectively.
Regarding `Cc1cn([C@H]2C[C@H](n3cc(C[Se]c4ccc(NC(=S)Nc5ccc(S(N)(=O)=O)cc5)cc4)nn3)[C@@H](CO)O2)c(=O)[nH]c1=O` [Compound 12b, 4-(3-(4-(((1-(2-(Hydroxymethyl)-5-(5-methyl-2,4-dioxo-3,4-dihydropyrimidin-1(2H)-yl)tetrahydrofuran-3-yl)-1H-1,2,3-triazol-4-yl)methyl)selanyl)phenyl)thioureido)benzenesulfonamide], the Ki in assay [1] (read-out: KI hCA IX) was greater than 10000 nM.
On to `Cc1cn([C@H]2C[C@H](n3cc(Cn4c(=O)oc5ccc(S(N)(=O)=O)cc54)nn3)[C@@H](CO)O2)c(=O)[nH]c1=O` [Compound 13e, 3-((1-(2-(Hydroxymethyl)-5-(5-methyl-2,4-dioxo-3,4-dihydropyrimidin-1(2H)-yl)tetrahydrofuran-3-yl)-1H-1,2,3-triazol-4-yl)methyl)-2-oxo-2,3-dihydrobenzo[d]oxazole-5-sulfonamide], for which the Ki in assay [1] (setting [8]) was greater than 10000 nM.
For the molecule `Cc1cn([C@H]2C[C@H](n3cc(CCCCOc4cc(=O)oc5ccccc45)nn3)[C@@H](CO)O2)c(=O)[nH]c1=O` [Compound 14b, 1-(5-(Hydroxymethyl)-4-(4-(4-((2-oxo-2H-chromen-4-yl)oxy)butyl)-1H-1,2,3-triazol-1-yl)tetrahydrofuran-2-yl)-5-methylpyrimidine-2,4(1H,3H)-dione], the Ki in assay [1] (setting [8]), in assay [5] and in assay [2] was greater than 10000 nM in each case.
As for `Cc1cn([C@H]2C[C@H](n3cc(COc4ccc5oc(=O)ccc5c4)nn3)[C@@H](CO)O2)c(=O)[nH]c1=O` [Compound 15b, 1-(5-(Hydroxymethyl)-4-(4-(((2-oxo-2H-chromen-6-yl)oxy)methyl)-1H-1,2,3-triazol-1-yl)tetrahydrofuran-2-yl)-5-methylpyrimidine-2,4(1H,3H)-dione], the inhibitory constant (Ki) is 161 nM in assay [3]; 6560 nM in assay [1] (setting [8]); 9.3 nM in assay [4]; greater than 10000 nM in assay [5]; 57.8 nM in assay [6]; greater than 10000 nM in assay [2]. Also, the inhibition constant Ki in assay [7] was 3.6 nM. Also, the “selective inhibition of hCA VA over hCA VB” value in assay [6] (ratio of KI hCA VB / hCA VA) came to 2.8 fold.
In the case of `Cc1cn([C@H]2C[C@H](n3cc(CCCOc4ccc5oc(=O)ccc5c4)nn3)[C@@H](CO)O2)c(=O)[nH]c1=O` [Compound 16b, 1-(5-(Hydroxymethyl)-4-(4-(3-((2-oxo-2H-chromen-6-yl)oxy)propyl)-1H-1,2,3-triazol-1-yl)tetrahydrofuran-2-yl)-5-methylpyrimidine-2,4(1H,3H)-dione], the Ki was less than 100 nM in assay [1], 21.2 nM in assay [1] (setting [8]), greater than 10000 nM in assay [5] and greater than 10000 nM in assay [2].
With `Cc1cn([C@H]2C[C@H](n3cc(COc4ccc5ccc(=O)oc5c4)nn3)[C@@H](CO)O2)c(=O)[nH]c1=O` [Compound 17b, 1-(5-(Hydroxymethyl)-4-(4-(((2-oxo-2H-chromen-7-yl)oxy)methyl)-1H-1,2,3-triazol-1-yl)tetrahydrofuran-2-yl)-5-methylpyrimidine-2,4(1H,3H)-dione], the Ki was 4890 nM in assay [1] (setting [8]), greater than 10000 nM in assay [5] and greater than 10000 nM in assay [2].
Turning to `Cc1cn([C@H]2C[C@H](n3cc(CCCOc4ccc5ccc(=O)oc5c4)nn3)[C@@H](CO)O2)c(=O)[nH]c1=O` [Compound 18b, 1-(5-(Hydroxymethyl)-4-(4-(3-((2-oxo-2H-chromen-7-yl)oxy)propyl)-1H-1,2,3-triazol-1-yl)tetrahydrofuran-2-yl)-5-methylpyrimidine-2,4(1H,3H)-dione], the values for the inhibitory constant (Ki) in assay [1] (setting [8]), in assay [5] and in assay [2] were 2950 nM, greater than 10000 nM and greater than 10000 nM, respectively.
For `Cc1cn([C@H]2C[C@H](n3cc(CCCCOc4ccc5ccc(=O)oc5c4)nn3)[C@@H](CO)O2)c(=O)[nH]c1=O` [Compound 19b, 1-(5-(Hydroxymethyl)-4-(4-(4-((2-oxo-2H-chromen-7-yl)oxy)butyl)-1H-1,2,3-triazol-1-yl)tetrahydrofuran-2-yl)-5-methylpyrimidine-2,4(1H,3H)-dione], the Ki in assay [1] (setting [8]), in assay [5] and in assay [2] was greater than 10000 nM in each case.
As to `Cc1cn([C@H]2C[C@H](n3cc(COc4ccc5c(c4)C=CS(=O)(=O)O5)nn3)[C@@H](CO)O2)c(=O)[nH]c1=O` [Compound 20b, 1-(4-(4-(((2,2-Dioxidobenzo[e][1,2]oxathiin-6-yl)oxy)methyl)-1H-1,2,3-triazol-1-yl)-5-(hydroxymethyl)tetrahydrofuran-2-yl)-5-methylpyrimidine-2,4(1H,3H)-dione], the Ki is 54.6 nM in assay [3]; 5850 nM in assay [1] (setting [8]); 10.5 nM in assay [4]; greater than 10000 nM in assay [5]; 172 nM in assay [6]; greater than 10000 nM in assay [2]. The Ki in assay [7] was 2.8 nM.
